Data published in PMC6596218, “Anthranilic amide and imidazobenzothiadiazole compounds disrupt Mycobacterium tuberculosis membrane potential” (MedChemComm, 2019).
In brackets after ≈: the same amount, converted by molar mass. Entries after “also recorded” stand apart in the source; their conditions may differ. Where two headings read alike, the source gives them in different places.

What was measured:
HepG2 cells [1] = experiment: HepG2 cytotoxicity (CellTiter-Glo, 72 h); assay type: cell-based; settings: Homo sapiens, mean ± standard deviation, replicates in parentheses
M. tuberculosis H37Rv = experiment: Minimum bactericidal concentration at pH 4.5 (MBC4.5), luminescence readout; assay type: cell-based, Mycobacterium tuberculosis; settings: for MBC: Mycobacterium tuberculosis, H37RV, 168 h; for antitubercular activity (by MBC4.5, in words): pH 4.5
[2] = test system: non-replicating M. tuberculosis; experiment: Non-replicating kill kinetics at pH 5.5 (CFU over 21 days); assay type: cell-based, Mycobacterium tuberculosis; settings: pH 5.5, 21 days, single replicate
HepG2 cells [3] = assay type: cell-based, human; settings: pH 7.4
Description: Measurement of membrane potential in HepG2 human liver cells (ATCC) was adapted from the method published by Huang.[40] Cells were plated at a density of 50 000 cells per well (100 μL) in black-walled 96-well plates and incubated overnight. Culture medium was replaced with the same volume of assay buffer (80 mM NaCl, 75 mM KCl, 25 mM D-glucose, 25 mM HEPES pH 7.4) containing test compounds at indicated concentrations; CCCP and DMSO served as controls. Plates were incubated at 37 °C for 30 min, followed by incubation with 4 μM DiOC2 for 20 min at RT. Cells were washed 4 times with 150 μL assay buffer, and suspended in 100 μL of assay buffer. A Synergy H1 microplate reader (BioTek Instruments) was used to measure fluorescence (488 nm/530 nm and 488 nm/620 nm). Each test compound was evaluated in at least two replicate experiments.

[4] = test system: M. tuberculosis membrane potential; experiment: M. tuberculosis membrane potential (DiOC2 red/green fluorescence ratio); assay type: cell-based, Mycobacterium tuberculosis; settings: CCCP positive control
[5] = median, pH 4.5 phosphate citrate buffer, 7 days, 2-log reduction threshold, replicates in parentheses

| SMILES | IC50 (HepG2 cells [1]) | MBC (M. tuberculosis H37Rv; [5]) | other results |
| --- | --- | --- | --- |
| CC(=O)Nc1ccccc1C(=O)Nc1ccc(Cl)cc1Cl [Compound 13, 2-acetamido-N-(2,4-dichlorophenyl)benzamide] | > 100 µM | > 200 µM | – |
| Cc1ccc(S(=O)(=O)Nc2ccccc2C(=O)Nc2ccc(Cl)cc2Cl)cc1 [Compound 15, N-(2,4-dichlorophenyl)-2-(4-methylphenylsulfonamido)benzamide] | 37 ± 8.5 µM | > 200 µM | log kill within 21 days [2]: > 3 logs |
| O=C(NC1C2CC3CC(C2)CC1C3)c1ccccc1NS(=O)(=O)c1ccc(Br)cc1 (stereo not drawn) [Compound 20, N-(adamantan-2-yl)-2-(4-bromophenylsulfonamido)benzamide] | 20 ± 4.2 µM | > 200 µM | – |
| O=C(Nc1ccc(Cl)cc1Cl)c1ccccc1NCc1ccc(Br)cc1 [Compound 12, 2-((4-bromobenzyl)amino)-N-(2,4-dichlorophenyl)benzamide] | > 100 µM | > 200 µM | – |
| O=C(NC1CCCCCC1)c1ccccc1NS(=O)(=O)c1ccc(Br)cc1 [Compound 19, 2-(4-bromophenylsulfonamido)-N-cycloheptylbenzamide] | 24 ± 6.4 µM | > 200 µM | – |
| O=C(Nc1ccc(Cl)cc1)c1cccnc1NS(=O)(=O)c1ccc(Br)cc1 [Compound 33, 2-(4-bromophenylsulfonamido)-N-(4-chlorophenyl)nicotinamide] | 20 ± 5.7 µM | > 200 µM | – |
| O=C(c1ccccc1NS(=O)(=O)c1ccc(Br)cc1)N1CCCCC1 [Compound 21, 4-bromo-N-(2-(piperidine-1-carbonyl)phenyl)benzenesulfonamide] | > 100 µM | > 200 µM | – |
| CN(C(=O)c1ccccc1NS(=O)(=O)c1ccc(Br)cc1)c1ccc(Cl)cc1Cl [Compound 25, 2-(4-bromophenylsulfonamido)-N-(2,4-dichlorophenyl)-N-methylbenzamide] | 60 ± 9.9 µM | > 200 µM | antitubercular activity (by MBC4.5, in words) (M. tuberculosis H37Rv): loss of antitubercular activity; disruption of HepG2 cell membrane potential (HepG2 cells [3]; human, 30 min): decrease in membrane potential in HepG2 cells comparable in magnitude to CCCP at concentrations significantly below the IC50; disruption of M. tuberculosis membrane potential at pH 5.6 [4]: maintained its disruption of M. tuberculosis membrane potential at pH 5.6; disruption of M. tuberculosis membrane potential at pH 6.8 [4]: showed some capacity to depolarize the membrane, but the effect was at much higher concentrations |
| CCNC(=O)c1ccccc1NS(=O)(=O)c1ccc(Br)cc1 [Compound 5, 2-(4-bromophenylsulfonamido)-N-ethylbenzamide] | > 100 µM | > 200 µM | – |
| CCCCNC(=O)c1ccccc1NS(=O)(=O)c1ccc(Br)cc1 [Compound 16, 2-(4-bromophenylsulfonamido)-N-butylbenzamide] | 59 ± 0.71 µM | 100 µM (≈ 41.1 µg/mL) | antitubercular activity (by MBC4.5, in words) (M. tuberculosis H37Rv): showed measurable anti-tubercular activity; disruption of HepG2 cell membrane potential (HepG2 cells [3]; human, 30 min): decrease in membrane potential in HepG2 cells comparable in magnitude to CCCP at concentrations significantly below the IC50; disruption of M. tuberculosis membrane potential at pH 5.6 [4]: disruption at significantly lower concentrations relative to pH 6.8; also recorded: comparable disruption to CCCP at concentrations one or more orders of magnitude below their MBC4.5; also recorded: larger, more consistent degree of separation from DMSO than CCCP |
| O=C(Nc1ccc(Cl)cc1)[C@@H]1CCCC[C@H]1NS(=O)(=O)c1ccc(Br)cc1 (relative stereo) [Compound 31, trans-2-(4-bromophenylsulfonamido)-N-(4-chlorophenyl)cyclohexanecarboxamide] | 67 ± 12 µM | > 200 µM | – |
| C#CCNC(=O)c1ccccc1NS(=O)(=O)c1ccc(Br)cc1 [Compound 18, 2-(4-bromophenylsulfonamido)-N-(pro-2-yn-1-yl)benzamide] | 83 ± 12 µM | > 200 µM | – |
| O=C(Nc1ccccc1)c1ccccc1NS(=O)(=O)c1ccc(Br)cc1 [Compound 4, 2-(4-bromophenylsulfonamido)-N-phenylbenzamide] | 30 ± 3.5 µM | 100 µM (≈ 43.1 µg/mL) | disruption of HepG2 cell membrane potential (HepG2 cells [3]; human, 30 min): decrease in membrane potential in HepG2 cells comparable in magnitude to CCCP at concentrations significantly below the IC50; disruption of M. tuberculosis membrane potential at pH 5.6 [4]: comparable disruption to CCCP at concentrations one or more orders of magnitude below their MBC4.5 |
| CN1CCN(C(=O)c2ccccc2NS(=O)(=O)c2ccc(Br)cc2)CC1 [Compound 23, 4-bromo-N-(2-(4-methylpiperizine-1-carbonyl)phenyl)benzenesulfonamide] | > 100 µM | > 200 µM | – |
| O=[N+]([O-])c1c(Sc2ccccn2)ccc2nsnc12 [Compound 38] | 4.8 ± 0.86 µM | 25 µM (≈ 7.26 µg/mL) | disruption of HepG2 cell membrane potential (HepG2 cells [3]): drop in membrane potential |
| O=C(Nc1ccccc1C(=O)Nc1ccc(Cl)cc1Cl)c1ccc(Br)cc1 [Compound 14, 2-(4-bromobenzamido)-N-(2,4-dichlorophenyl)benzamide] | > 100 µM | > 200 µM | – |
| O=C(c1ccccc1NS(=O)(=O)c1ccc(Br)cc1)N1CCOCC1 [Compound 22, 4-bromo-N-(2-(morpholine-4-carbonyl)phenyl)benzenesulfonamide] | > 100 µM | > 200 µM | – |

| SMILES | IC50 (HepG2 cells [1]) | MBC (M. tuberculosis H37Rv; [5]) | other results |
| --- | --- | --- | --- |
| CCn1cnc2c3nsnc3ccc21 [Compound 35] | > 100 µM | 75 µM (≈ 15.3 µg/mL) | – |
| O=C(Nc1ccc(Cl)cc1)[C@@H]1CCCC[C@@H]1NS(=O)(=O)c1ccc(Br)cc1 (relative stereo) [Compound 30, cis-2-(4-bromophenylsulfonamido)-N-(4-chlorophenyl)cyclohexanecarboxamide] | 76 ± 12 µM | > 200 µM | – |
| O=S(=O)(Nc1ccccc1COc1ccc(Cl)cc1Cl)c1ccc(Br)cc1 [Compound 29, 4-bromo-N-(2-((2,4-dichlorophenoxy)methyl)phenyl)benzenesulfonamide] | 24 ± 6.4 µM | > 200 µM | – |
| O=C(Nc1ccc(Cl)cc1Cl)c1cccc(NS(=O)(=O)c2ccc(Br)cc2)c1 [Compound 26, 3-(4-bromophenylsulfonamido)-N-(2,4-dichlorophenyl)benzamide] | 34 ± 3.5 µM | > 200 µM | antitubercular activity (by MBC4.5, in words) (M. tuberculosis H37Rv): loss of antitubercular activity |
| Nc1ccc2[nH]c(C3CCCCC3)nc2c1 [Compound 36] | > 100 µM | 100 µM (≈ 21.5 µg/mL) | – |
| O=C(Nc1ccc(Cl)cc1Cl)c1ccccc1S(=O)(=O)c1ccc(Br)cc1 [Compound 27, 2-((4-bromophenyl)sulfonyl)-N-(2,4-dichlorophenyl)benzamide] | 89 ± 18 µM | > 200 µM | antitubercular activity (by MBC4.5, in words) (M. tuberculosis H37Rv): loss of antitubercular activity |
| O=C(Nc1ccc(Cl)cc1Cl)c1ccccc1NS(=O)(=O)c1ccc(Br)cc1 [Compound 1] | 6.2 ± 1.1 µM | 6.3 µM (≈ 3.15 µg/mL) | MBC4.5 (M. tuberculosis H37Rv; [5]): 6.3 (5) μM; disruption of M. tuberculosis membrane potential at pH 5.6 [4]: comparable disruption to CCCP at concentrations one or more orders of magnitude below their MBC4.5; disruption of M. tuberculosis membrane potential at pH 6.8 [4]: depolarized the membrane nearly as strongly as known uncoupler carbonyl cyanide m-chlorophenyl hydrazone (CCCP) |
| O=C(Nc1ccc(Cl)cc1Cl)c1ccccc1NS(=O)(=O)c1ccccc1 [Compound 7, N-(2,4-dichlorophenyl)-2-(phenylsulfonamido)benzamide] | 19 ± 9.2 µM | > 200 µM | – |
| Cc1nnc(Sc2ccc3nsnc3c2[N+](=O)[O-])s1 [Compound 37] | 5.6 ± 3.2 µM | 19 µM (≈ 5.92 µg/mL) | disruption of HepG2 cell membrane potential (HepG2 cells [3]): drop in membrane potential |
| O=S(=O)(Nc1ccccc1CNc1ccc(Cl)cc1Cl)c1ccc(Br)cc1 [Compound 28, 4-bromo-N-(2-(((2,4-dichlorophenyl)amino)methyl)phenyl)benzenesulfonamide] | 33 µM | > 200 µM | – |
| Nc1ccccc1C(=O)Nc1ccc(Cl)cc1Cl [Compound 9, 2-amino-N-(2,4-dichlorophenyl)benzamide] | 40 ± 2.3 µM | 200 µM (≈ 56.2 µg/mL) | – |
| NC(=O)c1ccccc1NS(=O)(=O)c1ccc(Br)cc1 [Compound 6, 2-(4-bromophenylsulfonamido)benzamide] | > 100 µM | > 200 µM | disruption of HepG2 cell membrane potential (HepG2 cells [3]; human, 30 min): did not disrupt membrane potential at concentrations up to 200 μM; disruption of M. tuberculosis membrane potential at pH 5.6 [4]: did not disrupt M. tuberculosis membrane potential |
| O=C(Nc1ccc(Cl)cc1)c1ncccc1NS(=O)(=O)c1ccc(Br)cc1 [Compound 32, 3-(4-bromophenylsulfonamido)-N-(4-chlorophenyl)picolinamide] | 5 ± 1.4 µM | > 200 µM | – |
| CCNc1ccccc1C(=O)Nc1ccc(Cl)cc1Cl [Compound 10, N-(2,4-dichlorophenyl)-2-(ethylamino)benzamide] | > 100 µM | > 200 µM | disruption of HepG2 cell membrane potential (HepG2 cells [3]; human, 30 min): did not disrupt membrane potential at concentrations up to 200 μM; disruption of M. tuberculosis membrane potential at pH 5.6 [4]: caused membrane hyperpolarization |
| FC(F)(F)c1nc2ccc3nsnc3c2[nH]1 [Compound 34] | 70 ± 11 µM | 75 µM (≈ 18.3 µg/mL) | – |
| O=C(NC1CC1)c1ccccc1NS(=O)(=O)c1ccc(Br)cc1 [Compound 17, 2-(4-bromophenylsulfonamido)-N-cyclopropylbenzamide] | > 100 µM | > 200 µM | – |
